{"source": "patent US12421240B2", "about": "“Hydropyrazino[1,2-d][1,4]diazepine compounds for the treatment of autoimmune disease” (Hoffmann-La Roche Inc., priority 2019, dated 2025)", "key": {"[1]": {"molecular_target": "T1, human TLR7 (Homo sapiens, UniProt Q9NYK1)", "T1 sequence (Q9NYK1 27-1049)": "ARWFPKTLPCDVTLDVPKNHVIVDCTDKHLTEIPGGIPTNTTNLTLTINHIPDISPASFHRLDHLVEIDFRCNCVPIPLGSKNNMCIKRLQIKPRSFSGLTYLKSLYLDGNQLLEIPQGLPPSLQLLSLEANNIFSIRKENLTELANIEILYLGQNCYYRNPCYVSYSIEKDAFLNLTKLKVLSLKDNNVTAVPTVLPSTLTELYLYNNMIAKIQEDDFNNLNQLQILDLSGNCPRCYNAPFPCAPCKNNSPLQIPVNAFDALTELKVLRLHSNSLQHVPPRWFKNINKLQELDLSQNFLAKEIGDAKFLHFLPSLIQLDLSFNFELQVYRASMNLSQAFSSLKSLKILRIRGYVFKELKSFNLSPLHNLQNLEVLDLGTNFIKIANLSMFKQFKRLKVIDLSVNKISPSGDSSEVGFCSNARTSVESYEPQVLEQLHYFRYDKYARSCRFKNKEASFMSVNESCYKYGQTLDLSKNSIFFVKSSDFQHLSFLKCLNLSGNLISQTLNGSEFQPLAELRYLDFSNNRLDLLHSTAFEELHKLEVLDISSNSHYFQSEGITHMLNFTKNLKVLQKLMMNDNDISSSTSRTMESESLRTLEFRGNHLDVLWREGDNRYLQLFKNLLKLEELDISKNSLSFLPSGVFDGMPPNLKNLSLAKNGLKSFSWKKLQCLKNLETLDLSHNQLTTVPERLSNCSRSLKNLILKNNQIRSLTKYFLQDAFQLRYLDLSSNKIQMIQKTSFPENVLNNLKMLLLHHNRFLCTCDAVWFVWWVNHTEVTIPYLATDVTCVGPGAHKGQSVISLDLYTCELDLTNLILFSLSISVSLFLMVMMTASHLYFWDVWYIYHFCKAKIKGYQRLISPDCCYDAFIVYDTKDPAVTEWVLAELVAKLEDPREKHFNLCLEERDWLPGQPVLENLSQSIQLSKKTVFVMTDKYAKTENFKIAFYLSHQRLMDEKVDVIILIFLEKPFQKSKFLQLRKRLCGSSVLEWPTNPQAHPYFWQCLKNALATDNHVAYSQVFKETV", "experiment": "HEK293-Blue-hTLR-7 cells assay (SEAP reporter, R848 stimulation)", "type": "cell-based", "conditions": "HEK293-Blue-hTLR7 cells, R848 ligand, 20 hrs; read-out: HEK/hTLR7 IC50", "experimental": "The following tests were carried out in order to determine the activity of the compounds of formula (I), (Ia) or (Ib) in HEK293-Blue-hTLR-7/8/9 cells assay.\nHEK293-Blue-hTLR-7 Cells Assay:\nA stable HEK293-Blue-hTLR-7 cell line was purchased from InvivoGen (Cat. #: hkb-htlr7, San Diego, California, USA). These cells were originally designed for studying the stimulation of human TLR7 by monitoring the activation of NF-κB. A SEAP (secreted embryonic alkaline phosphatase) reporter gene was placed under the control of the IFN-β minimal promoter fused to five NF-κB and AP-1-binding sites. The SEAP was induced by activating NF-κB and AP-1 via stimulating HEK-Blue hTLR7 cells with TLR7 ligands. Therefore the reporter expression was declined by TLR7 antagonist under the stimulation of a ligand, such as R848 (Resiquimod), for incubation of 20 hrs. The cell culture supernatant SEAP reporter activity was determined using QUANTI-Blue™ kit (Cat. #: rep-qb1, Invivogen, San Diego, Ca., USA) at a wavelength of 640 nm, a detection medium that turns purple or blue in the presence of alkaline phosphatase.\nHEK293-Blue-hTLR7 cells were incubated at a density of 250,000-450,000 cells/mL in a volume of 170 μL in a 96-well plate in Dulbecco's Modified Eagle's medium (DMEM) containing 4.5 g/L glucose, 50 U/mL penicillin, […], […], 2 mM L-glutamine, 10% (v/v) heat-inactivated fetal bovine serum with addition of 20 μL test compound in a serial dilution in the presence of final DMSO at 1% and 10 μL of 20 uM R848 in above DMEM, perform incubation under 37° C. in a CO2 incubator for 20 hrs. Then 20 μL of the supernatant from each well was incubated with 180 μL Quanti-blue substrate solution at 37° C. for 2 hrs and the absorbance was read at 620655 nm using a spectrophotometer. The signaling pathway that TLR7 activation leads to downstream NF-κB activation has been widely accepted, and therefore similar reporter assay was modified for evaluating TLR7 antagonist."}, "[2]": {"experiment": "Human microsomal stability assay", "type": "in vitro ADME", "conditions": "human liver microsomes, 1 μM test compound, 0.5 mg/mL protein, 37° C.; low <7.0, medium 7.0-16.2, high 16.2-23.2", "experimental": "Human Microsomal Stability Assay\nHuman liver microsomes (Cat. NO.: 452117, Corning, USA) were preincubated with test compound for 10 minutes at 37° C. in 100 mM potassium phosphate buffer, pH 7.4. The reactions were initiated by adding NADPH regenerating system. The final incubation mixtures contained 1 μM test compound, 0.5 mg/mL liver microsomal protein, 1 mM MgCl2, 1 mM NADP, 1 unit/mL isocitric dehydrogenase and 6 mM isocitric acid in 100 mM potassium phosphate buffer, pH 7.4. After incubation times of 0, 3, 6, 9, 15 and 30 minutes at 37° C., 300 μL of cold ACN (including internal standard) was added to 100 μL incubation mixture to terminate the reaction. Following precipitation and centrifugation, 100 uL supernatant will be taken out and added 300 uL water. The amount of compound remaining in the samples was determined by LC-MS/MS. Controls of no NADPH regenerating system at zero and 30 minutes were also prepared and analyzed. The results were categorized as: low (<7.0 mL/min/kg), medium (7.0-16.2 mL/min/kg) and high (16.2-23.2 mL/min/kg)."}}, "data": [{"smiles": "C[C@@H]1CN(c2cc(=O)n(C)c3ncccc23)C[C@@H]2CCN(Cc3ccc4c(c3)CNCC4)CCN21", "note": "[Example 28, 4-[(4R,10aS)-4-methyl-8-(1,2,3,4-tetrahydroisoquinolin-7-ylmethyl)-1,3,4,6,7,9,10,10a-octahydropyrazino[1,2-d][1,4]diazepin-2-yl]-1-methyl-1,8-naphthyridin-2-one]", "values": [{"measurement": "IC50", "setting": "[1]", "value": 36.3, "unit": "nM"}, {"measurement": "CL (h)", "setting": "[2]", "value": 6.5, "unit": "mL/min/kg"}]}]}
